Laboratory results from patent US6740497B2, “Method and apparatus for detecting cancerous cells using molecules that change electrophoretic mobility” (The Regents of the University of California, priority 1998, dated 2004).
Peptide text beside a SMILES is read from it. * marks the point of attachment. 5FAM = O=C1OC2(c3ccc(O)cc3Oc3cc(O)ccc32)c2ccc(C(=O)*)cc21

What was measured:
protein kinase C (PKC) [1] = assay: Net intracellular PKC activity in single RBL cells: microinjected Fl-sPKC reporter, laser lysis, capillary electrophoresis, laser-induced fluorescence; assay type: cell-based, rat; conditions: RBL cell
Method: FIGS. 2A-C and 3A-C are two sets of graphs of three stacked electrophoretograms of reporter substrate molecule separations all made under identical electrophoretic conditions on the same day. In the first embodiment, illustrated by FIGS. 2A-C and FIGS. 3A-C, rat basophilic leukemia (RBL) cells, from the tumor mast cell line RBL-2H3, were used. These cells were grown at 37° C. and 5% CO2 in Dulbecco's modified eagle medium (DMEM) supplemented with 10% fetal bovine serum, and L-glutamine ([…]). Penicillin (100 units/ml) and streptomycin (100 μg/ml) were added to the media to inhibit bacterial growth. […] The cells 46 were plated at concentrations determined empirically to produce approximately one cell per 100× field of view on the day of the measurement. […]
In the first embodiment, the microscopy system of FIG. 9 used for cell lysis was similar to that described previously in the incorporated application entitled “Fast Controllable Laser Lysis of Cells for Analysis”. The frequency-doubled Q-switched Nd:YAG laser 18 (Minilite II, Continuum, Santa Clara, Calif.; Minilase II-20, New Wave Research, Sunnyvale, Calif.) was used to generate a single pulse (1-25 μJ, 5-ns pulse width, 532 nm) directed into a fluorescence microscope 12 (Axiovert 135, Zeiss, Thornwood, N.Y.). […]

protein kinase C (PKC) [2] = assay: Time course of intracellular Fl-sPKC phosphorylation by PKC in single NIH/3T3 cells (laser lysis, capillary electrophoresis); assay type: cell-based, murine; conditions: 100 nM PMA, 5 minute time point, room temperature, FIG. 12
protein kinase C (PKC) [3] = assay: Intracellular Fl-sPKC phosphorylation by PKC in single Xenopus laevis oocytes (PERT CE sampling, MEKC); assay type: cell-based
Method: Oocytes 46′ were surgically obtained from pigmented or albino Xenopus laevis frogs and were cultured as described previously. Oocytes 46′ were microinjected by means of an injector mounted on a low power dissecting microscope (not shown) with 50 nl of reporter substrate peptide (0.5-200 μM) in buffer B, and then incubated for 30 min to permit diffusion of the peptide through the oocyte 46′. For measurements, oocytes 46′ were placed in buffer C (96 mM NaCl, 2 mM KCl, 1.8 mM CaCl2, 1 mM MgCl2, 5 mM Hepes, pH 7.6). When LPA (1-oleoyl-2-hydroxy-sn-glycero-3-phosphate, Avanti Polar Lipids, Alabaster, Ala.) was added to the oocytes 46′, fatty acid-free bovine serum albumen (5%) was used as a carrier as described previously.
All samples from the oocytes 46′ were obtained and electrophoresed by a method referred to as piezoelectric sampling/rapid translation/capillary electrophoresis (PERT CE). The apparatus used for PERT CE is illustrated in FIGS. 8A-B. FIGS. 8A and 8B are diagrammatic depictions of the components of the apparatus used to make measurements of intracellular enzyme activity from single Xenopus laevis oocytes 46′. […] The holder is part of a complete apparatus for automatically sampling oocyte cytoplasm and rapidly subjecting this sample to electrophoresis before any substantial change in the substrate molecules can occur. This is achieved by providing a sharpened electrophoresis capillary 22 attached to a high speed translation system to plunge the capillary into the cell to capture a plug of cytoplasm. Then the capillary is automatically withdrawn from the oocyte and rapidly moved to make electrical contact with a reservoir 134 of electrophoresis buffer so that electrophoresis of the substrate molecules within the “plug” commences before any additional chemical reactions occur.
To obtain cytoplasm, the capillary 22 was driven 60 μm into the oocyte 46′ by the piezoelectric element. […] The capillary 22 was then automatically withdrawn from the cytoplasm. […] Electrophoresis was initiated immediately. […]

RBL cell = assay: Intracellular side reactions (degradation/modification) of the Fl-sPKC reporter in a microinjected RBL cell; assay type: cell-based, rat; conditions: 200 μM Pefabloc present, with or without PMA, FIGS. 2B and 2C
Method: In the measurements illustrated by FIG. 2A-C, prior to mounting on the microscope stage for microinjection and analysis at room temperature (20°-23° C.), each cell chamber 199 was treated by addition of 10 μl of 10 mM Pefabloc (Boehringer-Mannheim, Indianapolis, Ind.) in buffer A with gentle manually pipetted mixing using a Pipetman® (Rainin, Woburn, Mass.).
This yielded a final Pefabloc concentration of 200 μM. Pefabloc is a soluble, physiologically tolerated, inhibitor of serine proteases, a subset of intracellular enzymes that tend to degrade peptides. Pefabloc was included to minimize intracellular degradation of Fl-sPKC. […]
In the measurements illustrated by FIGS. 2A-C, Fl-sPKC was diluted in buffer B, a physiologically compatible intracellular buffer composed of 10 mM Hepes and 140 mM KCl, at pH 7.4. […] The cells 46 that had been successfully microinjected were identified by visual observation of internal Calcium Orange epi-fluorescence through a set of TRITC filters (Chroma Technology Corp., Brattleboro, Vt.) (not shown, but included in the microscope 12) to minimize photodestruction of the fluorescein moiety on Fl-sPKC. […]
Clearly activation of an intracellular kinase by a potent pharmacologic activator can be measured by this approach. Furthermore, both electrophoretograms in FIGS. 2B and 2C show the presence of peaks that cannot be readily identified. […]

Row | SMILES | Fl-sPKC peak versus P-Fl-sPKC peak (net PKC activity) (protein kinase C (PKC) [1]; 100 nM PMA, 5 minutes, FIG. 2C) | PKC activation (peaks matching P-Fl-sPKC) (protein kinase C (PKC) [1]; 1 μM PMA for 10 minutes before microinjection of Fl-sPKC and Fl-sPKA, FIG. 11C) | phosphorylation level of Fl-sPKC (protein kinase C (PKC) [2]) [%] | collected fluorescence corresponding to P-Fl-sPKC (protein kinase C (PKC) [3]; Xenopus oocyte, 10 μM PMA for 10 minutes, ~10 μM reporter substrate, FIG. 4D) | degree of reporter substrate phosphorylation (protein kinase C (PKC) [3]; Xenopus oocyte, 10 μM PMA for three minutes, FIG. 5) | average rate of Fl-sPKC phosphorylation within oocytes (protein kinase C (PKC) [3]; Xenopus oocytes, 10 μM activator, intermediate time points, FIGS. 6A/6B) [nM/s] | side products as share of collected fluorescence (RBL cell)
1 | CCCCCCCCCCCCCC(=O)O[C@@H]1[C@@H](C)[C@@]2(O)[C@@H](C=C(CO)C[C@]3(O)C(=O)C(C)=C[C@@H]23)[C@@H]2C(C)(C)[C@]12OC(C)=O [PMA, phorbol myristic acid] | nearly equal magnitude | small, but measurable amount of PKC activation | ~50 | essentially all collected fluorescence | intermediate degree of reporter substrate phosphorylation | 25 ± 15 | –
2 | CC(C)C[C@H](NC(=O)[C@H](CO)NC(=O)CNC(=O)[C@H](CCCCN)NC(=O)[C@H](CCCNC(=N)N)NC(=O)[C@H](C)NC(=O)[C@H](Cc1ccccc1)NC(=O)[C@H](CCCNC(=N)N)NC(=O)c1ccc2c(c1)C(=O)OC21c2ccc(O)cc2Oc2cc(O)ccc21)C(=O)N[C@@H](CCCNC(=N)N)C(=O)N[C@@H](CCC(N)=O)C(=O)N[C@@H](CCCCN)C(=O)N[C@@H](CC(N)=O)C(=O)N[C@H](C(=O)O)C(C)C [Fl-sPKC, Fl- Arg-Phe-Ala-Arg-Lys-Gly-Ser-Leu-Arg-Gln-Lys-Asn-Val] (5FAM-RFARKGSLRQKNV-OH) | – | – | – | – | – | – | about 50%
